Source: patent US4162326A, “Insect control agents” (Stauffer Chemical Company, priority 1978, dated 1979)

System: milkweed bug, Oncopeltus fasciatus (Dallas)
Test: anti-juvenile hormone activity and insecticidal activity against the milkweed bug (treated filter paper, second-instar nymphs)
Assay type: in vivo
Conditions: for ED50 (ED50 or LD50; compounds marked with asterisk, functioned as anti-juvenile hormone): anti-juvenile hormone activity (asterisk); for ED50 (ED50 or LD50; compounds marked with asterisk, functioned as anti-juvenile hormone) / LD50 (ED50 or LD50; compounds without asterisk, functioned as insecticides): second-instar nymphs, treated filter paper, 70° F, 3 to 4 weeks; for type of action (anti-juvenile hormone or general insecticide): statement in words on Table II; for LD50 (ED50 or LD50; compounds without asterisk, functioned as insecticides): insecticidal activity, mortality to at least 50% of the insects
Protocol: Compounds were tested for anti-juvenile hormone activity and insecticidal activity against the milkweed bug, Oncopeltus fasciatus (Dallas) as follows: The test compounds were diluted in acetone and impregnated into a filter paper disc by applying 0.6 milliliters and permitting the solvent to completely evaporate. Ten second-instar nymphs of Oncopeltus fasciatus (Dallas) were placed in a petri dish with the treated filter paper. The nymphs were supplied with milkweed seeds and water (by soaking dental cotton in a 4-dram vial cap). All petri dishes were stored at 70° F. The compounds were tested at concentrations ranging from 10 μg/cm^2 of filter paper downwards. The insecticidal or anti-juvenile hormone effect was determined when control insects had developed into normal adults, normally 3 to 4 weeks. The asterisk in the Table signifies that the indicated compound functioned as an anti-juvenilehormone. Compounds not marked with an asterisk functioned as insecticides,resulting in mortality to at least 50% of the insects at the indicated level.

## C=CCOc1cc2c(cc1OC)C=CC(C)(C)O2 [Compound 7]
  ED50 (ED50 or LD50; compounds marked with asterisk, functioned as anti-juvenile hormone): 0.5 ug/cm^2
  type of action (anti-juvenile hormone or general insecticide): function as anti-juvenile hormones

## C=CCOc1ccc2c(c1)OC(C)(C)C=C2 [Compound 3, 2,2-dimethyl-7-allyloxy-3-chromene]
  ED50 (ED50 or LD50; compounds marked with asterisk, functioned as anti-juvenile hormone): 2 ug/cm^2
  type of action (anti-juvenile hormone or general insecticide): function as anti-juvenile hormones

## C#CCOc1ccc2c(c1)OC(C)(C)C=C2 [Compound 1]
  LD50 (ED50 or LD50; compounds without asterisk, functioned as insecticides): 2 ug/cm^2
  type of action (anti-juvenile hormone or general insecticide): function as general insecticides

## CC#CCOc1ccc2c(c1)OC(C)(C)C=C2 [Compound 2]
  ED50 (ED50 or LD50; compounds marked with asterisk, functioned as anti-juvenile hormone): 0.5 ug/cm^2
  type of action (anti-juvenile hormone or general insecticide): function as anti-juvenile hormones

## C#CCOc1cc2c(cc1OC)C=CC(C)(C)O2 [Compound 6]
  ED50 (ED50 or LD50; compounds marked with asterisk, functioned as anti-juvenile hormone): 1 ug/cm^2
  type of action (anti-juvenile hormone or general insecticide): function as anti-juvenile hormones

## C#CCOc1cc2c(cc1OC)OC(C)(C)C=C2 [Compound 4]
  LD50 (ED50 or LD50; compounds without asterisk, functioned as insecticides): 6 ug/cm^2
  type of action (anti-juvenile hormone or general insecticide): function as general insecticides

## C=CCOc1cc2c(cc1OC)OC(C)(C)C=C2 [Compound 5]
  LD50 (ED50 or LD50; compounds without asterisk, functioned as insecticides): 8 ug/cm^2
  type of action (anti-juvenile hormone or general insecticide): function as general insecticides
